In ChEMBL document CHEMBL1158653, “Plant anticancer agents X. Isolation of camptothecin and 9-methoxycamptothecin from Ervatamia heyneana” (1979):
Converted amounts (≈) assume the structure as drawn.

How the values were obtained:
Assay type in all cases: functional
KB = assay: Cytotoxicity against human KB cells; conditions: read-out: ED50 (the source's name)
P388 [1] = assay: Cytotoxicity against mouse P388 cells; conditions: read-out: ED50 (the source's name)
P388 [2] = assay: Cytotoxicity against mouse P388 cells in in vivo based assay at 0.78 mg/kg relative to control
P388 [3] = assay: Cytotoxicity against mouse P388 cells in in vivo based assay at 1.56 mg/kg relative to control

SMILES | EC50 (KB) [µg/mL] | EC50 (P388 [1]) [µg/mL] | T/C (P388 [2]) [%] | T/C (P388 [3]) [%]
CC[C@@]1(O)C(=O)OCc2c1cc1n(c2=O)Cc2cc3c(OC)cccc3nc2-1 | 0.17 (≈ 0.449 µM) | 0.53 (≈ 1.4 µM) | – | –
CC[C@@]1(O)C(=O)OCc2c1cc1n(c2=O)Cc2cc3ccccc3nc2-1 [CAMPTOTHECIN] | – | – | 175 | 181
